Like-named read-outs stand apart in the source and are kept apart here.
Experiments:
[1] = system: Plants expressing the dioxygenase encoded by the tfdA gene; settings: reported in Llewellyn and Last 1996 and U.S. Pat. Nos. 6,100,446 and 6,153,401; cited from earlier work
[2] = system: Transgenic cotton plants (transformed with tfdA gene); assay: Seed cotton yield after spraying 2,4-D amine on transgenic cotton; assay type: in vivo; settings: for SEED COTTON YIELD: herbicide rate 1 lb/acre, average of 4 replications
Procedure: Transgenic cotton plants (transformed as described in Bayley et al., Theor. Appl. Genet., 83:645-649 (1992)) were grown from transgenic seed obtained from USDA, Lubbock, Tex. The cotton plants were sprayed with 2,4-D amine at 1 lb of active ingredient per acre.

[3] = system: Plants expressing the dioxygenase encoded by the tfdA gene; assay: Herbicide tolerance of plants expressing the tfdA dioxygenase; assay type: in vivo; settings: at lower levels of herbicide than for 2,4-D; data not shown
Description: See, e.g., Llewellyn and Last, in Herbicide-Resistant Crops Chapter 10, pages 159-174 (Duke, ed., CRC Lewis Publishers 1996). Preferably, additional bacterial codons of the tfdA coding sequence are replaced by plant-preferred codons to obtain better expression of the encoded dioxygenase. […] See, e.g., Llewellyn and Last, in Herbicide-Resistant Crops Chapter 10, pages 159-174 (Duke, ed., CRC Lewis Publishers 1996) and U.S. Pat. Nos. 6,100,446 and 6,153,401.

## O=C(O)COc1cc(Cl)c(Cl)cc1Cl [2,4,5-T, 2,4,5-trichlorophenoxyacetic acid]
[1]
  tolerance of plants to the herbicide: not to be tolerant

## CNC.O=C(O)COc1ccc(Cl)cc1Cl [2,4-D amine]
[2]; 1 lb of active ingredient per acre
  effect on yield of cotton: significantly increased the yield of cotton
[2]; average of the seven cotton lines, 1 lb/acre vs rate 0
  PERCENT INCREASE, AVERAGE: 13.0
[2]; cotton line X-2600, 1 lb/acre vs rate 0
  PERCENT INCREASE: 8.0
[2]; cotton line X-2600
  SEED COTTON YIELD: 2145 Pounds/acre
[2]; cotton line X-2603, 1 lb/acre vs rate 0
  PERCENT INCREASE: 7.4
[2]; cotton line X-2603
  SEED COTTON YIELD: 2790 Pounds/acre
[2]; cotton line X-2606, 1 lb/acre vs rate 0
  PERCENT INCREASE: 19.5
[2]; cotton line X-2606
  SEED COTTON YIELD: 3067 Pounds/acre
[2]; cotton line X-2609, 1 lb/acre vs rate 0
  PERCENT INCREASE: −1.1
[2]; cotton line X-2609
  SEED COTTON YIELD: 2301 Pounds/acre
[2]; cotton line X-2614, 1 lb/acre vs rate 0
  PERCENT INCREASE: 33.6
[2]; cotton line X-2614
  SEED COTTON YIELD: 2660 Pounds/acre
[2]; cotton line X-2615, 1 lb/acre vs rate 0
  PERCENT INCREASE: 15.3
[2]; cotton line X-2615
  SEED COTTON YIELD: 2380 Pounds/acre
[2]; cotton line X-2619, 1 lb/acre vs rate 0
  PERCENT INCREASE: 8.7
[2]; cotton line X-2619
  SEED COTTON YIELD: 2235 Pounds/acre

## O=C(O)CCCOc1ccc(Cl)cc1Cl [2,4-DB, 2,4-dichlorophenoxybutyric acid]
[3]
  tolerance of plants to the herbicide: tolerant

## O=C(O)COc1ccc(Cl)cc1 [4-CPA, 4-chlorophenoxyacetic acid]
[1]
  tolerance of plants to the herbicide: tolerant

## Cc1cc(Cl)ccc1OCC(=O)O [MCPA, 2-methyl-4-chlorophenoxyacetic acid]
[3]
  tolerance of plants to the herbicide: tolerant
